Like-named read-outs stand apart in the source and are kept apart here.

In general, EC50 refers to the concentration giving half of the maximal effect. As a reminder, the IC50 is the concentration needed to halve the response being measured.

One test concerns the target T1, FLT3 D835Y (Homo sapiens, UniProt P36888, D835Y).
T1 construct: purchased Invitrogen (SelectScreen platform)
T1 sequence (P36888 27-993 D835Y): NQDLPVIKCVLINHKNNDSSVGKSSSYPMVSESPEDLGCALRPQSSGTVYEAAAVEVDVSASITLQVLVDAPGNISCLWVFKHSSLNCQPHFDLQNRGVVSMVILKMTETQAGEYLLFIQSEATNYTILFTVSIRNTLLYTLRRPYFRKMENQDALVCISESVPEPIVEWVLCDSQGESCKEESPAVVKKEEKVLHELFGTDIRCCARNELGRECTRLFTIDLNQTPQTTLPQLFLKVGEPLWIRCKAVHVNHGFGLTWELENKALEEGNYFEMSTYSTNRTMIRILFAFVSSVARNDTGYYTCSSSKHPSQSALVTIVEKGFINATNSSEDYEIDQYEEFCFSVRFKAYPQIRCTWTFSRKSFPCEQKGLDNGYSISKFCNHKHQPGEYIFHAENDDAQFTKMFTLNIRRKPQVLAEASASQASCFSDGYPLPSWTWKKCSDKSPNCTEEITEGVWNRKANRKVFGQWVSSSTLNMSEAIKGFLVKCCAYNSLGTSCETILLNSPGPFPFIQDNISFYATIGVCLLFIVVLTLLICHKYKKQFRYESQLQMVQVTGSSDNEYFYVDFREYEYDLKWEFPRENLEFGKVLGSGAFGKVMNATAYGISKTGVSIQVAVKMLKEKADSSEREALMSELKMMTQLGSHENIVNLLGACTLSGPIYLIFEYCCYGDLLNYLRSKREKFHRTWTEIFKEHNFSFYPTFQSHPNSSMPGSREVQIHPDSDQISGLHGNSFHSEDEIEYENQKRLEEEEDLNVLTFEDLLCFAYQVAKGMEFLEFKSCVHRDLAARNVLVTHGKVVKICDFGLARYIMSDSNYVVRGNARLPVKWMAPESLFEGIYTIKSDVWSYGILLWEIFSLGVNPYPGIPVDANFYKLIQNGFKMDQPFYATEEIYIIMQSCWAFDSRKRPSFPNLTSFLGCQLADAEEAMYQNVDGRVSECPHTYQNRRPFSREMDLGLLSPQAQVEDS
Description: Kinase EC50 (10 pt curve or estimate, ATP Kmapp). The format is biochemical. As to conditions: from 10 pt curve or estimate based on 1 μm inhibition assay at ATP Kmapp.

The target in the next test is T2, CSF-1R (Homo sapiens, UniProt P07333).
T2 construct: purchased Invitrogen (SelectScreen platform)
Description: Kinase EC50 (10 pt curve or estimate, ATP Kmapp). To be noted: from 10 pt curve or estimate based on 1 μm inhibition assay at ATP Kmapp. Format: biochemical.

Test [1] concerns Raw264.7 (murine macrophage-like cells). The experiment in a line: sulforhodamine B (SRB) cytotoxicity assay. Format: cell-based. As to conditions: Mus musculus, Table 5 summary, read-out: IC50 SRB assay Raw 264.7. The procedure: (§1) The cytotoxic activity of compounds listed in Table 5 was determined with a sulforhodamine B (SRB) assay on panel of cell lines, including MdaMb231 (breast cancer), MV4-11 (leukemia), PC-3 (prostate cancer), U266B1 (multiple myeloma), C7 macrophages, and Raw264.7 (murine macrophage-like cells).
(§2) Cells growing in relevant media were seeded in a 96 well plate and left to adhere overnight. Cells were plated at appropriate cell densities: • MV4-11: 20.000 cells/well • Mda-Mb231: 6000 cells/well • C7: 10.000 cells/well • Raw264.7: 2000 cells/well • PC-3: 6000 cells/well • U266B1: 40.000 cells/well.
(§3) Cells were incubated before the compounds were added the next day to a top concentration of 100 μM and serially diluted 1 in 5 across the plate. After a 3 day incubation period (6 days for C7 and Raw264.7) cells were fixed with trichloroacetic acid (TCA) to end concentration of 10% for adherent cells and 16% end concentration for suspension cells for 1 hr at 4° C. before washing. Cells were stained with 0.4% sulforhodamine-B dye (SRB) in 1% acetic acid for 30 minutes and washed in 1% acetic acid. To solubilize the dye 100 μl 10 mM Tris, pH 10.5 was added and the absorbance was read at 564 nm. IC50 values were generated using the SoftMAX Pro™ software. The data is presented below in Tables 6 through 11.
In general terms: The SRB assay estimates cell density from bound dye.

The subject of test [2] is MV4-11 (leukemia) cell line. The experiment in a line: sulforhodamine B (SRB) cytotoxicity assay. Format: cell-based. As to conditions: Homo sapiens. The procedure:
as §1, §2
After a 3 day incubation period (6 days for C7 and Raw264.7) cells were fixed with trichloroacetic acid (TCA) to end concentration of 10% for adherent cells and 16% end concentration for suspension cells for 1 hr at 4° C. before washing. Cells were stained with 0.4% sulforhodamine-B dye (SRB) in 1% acetic acid for 30 minutes and washed in 1% acetic acid. To solubilize the dye 100 μl 10 mM Tris, pH 10.5 was added and the absorbance was read at 564 nm. IC50 values were generated using the SoftMAX Pro™ software. The data is presented below in Tables 6 through 11.

The subject of the next test is MdaMb231 cells. The experiment in a line: BrdU cell proliferation assay. Format: cell-based. As to conditions: for concentration at which cell proliferation was inhibited (BrdU): MdaMb231 cells, 24 hour treatment; for BrdU (Inhibition of cell proliferation): Table 5 summary, concentration inhibiting proliferation. As for the experimental part: Representative compounds of the present invention were evaluated in a BrdU assay to determine their effect on the cell proliferation of MdaMb231 cells.
The effect of the inventive compounds on cell proliferation was analyzed by detecting 5-Bromo-2′-deoxy-uridine (BrdU) incorporation after 24 hour treatment with the test compounds. The cell proliferation ELISA BrdU kit (Roche™ cat. No. 11 647 229 001) was used according to manufacturer's protocol. Cells were plated at 10.000 cells/well. The next day compounds were added in concentration range of 2.5, 5, 10 and 20 μM.
After 24 hours, 12 μl/well BrdU labelling solution was added and cells were incubated for 6 hours at 37° C./5% CO2 before labeling solution was removed. Cells were fixed with 200 μl FixDenat™ solution for 30 minutes. After removal of fixative 100 μl BrdU-peroxidase working solution was added and cells were incubated for 90 minutes. Cells were subsequently washed three times. 100 μl substrate solution was added and after 30 minutes the absorbance was read at 370 nm.

For test [3], the system named is MdaMb231 (breast cancer) cell line. Description: sulforhodamine B (SRB) cytotoxicity assay. Format: cell-based. As to conditions: Homo sapiens. The procedure: as §1, §2, §3
[4] abbreviates: MV4-11, 72 h, 100 μM highest concentration, diluted 1:5, 3 day incubation, read-out: IC50 Measured Against MV4-11 Cell Line.
The mark [5] stands for this setting: MV4-11, Table 5 summary, read-out: IC50 SRB assay MV4-11.
Setting [6] is: MDA-MB-231, 72 h, 100 μM highest concentration, diluted 1:5 (two series), 3 day incubation, read-out: IC50 Measured Against MdaMb231 Cell Line.
Setting [7] is: MDA-MB-231, Table 5 summary, read-out: IC50 SRB assay Mda MB-231.
[8] abbreviates: MV4-11, 72 h, 50 μM highest concentration, diluted 1:4, 3 day incubation, read-out: IC50 Measured Against MV4-11 Cell Line.

T2 sequence (P07333 20-972): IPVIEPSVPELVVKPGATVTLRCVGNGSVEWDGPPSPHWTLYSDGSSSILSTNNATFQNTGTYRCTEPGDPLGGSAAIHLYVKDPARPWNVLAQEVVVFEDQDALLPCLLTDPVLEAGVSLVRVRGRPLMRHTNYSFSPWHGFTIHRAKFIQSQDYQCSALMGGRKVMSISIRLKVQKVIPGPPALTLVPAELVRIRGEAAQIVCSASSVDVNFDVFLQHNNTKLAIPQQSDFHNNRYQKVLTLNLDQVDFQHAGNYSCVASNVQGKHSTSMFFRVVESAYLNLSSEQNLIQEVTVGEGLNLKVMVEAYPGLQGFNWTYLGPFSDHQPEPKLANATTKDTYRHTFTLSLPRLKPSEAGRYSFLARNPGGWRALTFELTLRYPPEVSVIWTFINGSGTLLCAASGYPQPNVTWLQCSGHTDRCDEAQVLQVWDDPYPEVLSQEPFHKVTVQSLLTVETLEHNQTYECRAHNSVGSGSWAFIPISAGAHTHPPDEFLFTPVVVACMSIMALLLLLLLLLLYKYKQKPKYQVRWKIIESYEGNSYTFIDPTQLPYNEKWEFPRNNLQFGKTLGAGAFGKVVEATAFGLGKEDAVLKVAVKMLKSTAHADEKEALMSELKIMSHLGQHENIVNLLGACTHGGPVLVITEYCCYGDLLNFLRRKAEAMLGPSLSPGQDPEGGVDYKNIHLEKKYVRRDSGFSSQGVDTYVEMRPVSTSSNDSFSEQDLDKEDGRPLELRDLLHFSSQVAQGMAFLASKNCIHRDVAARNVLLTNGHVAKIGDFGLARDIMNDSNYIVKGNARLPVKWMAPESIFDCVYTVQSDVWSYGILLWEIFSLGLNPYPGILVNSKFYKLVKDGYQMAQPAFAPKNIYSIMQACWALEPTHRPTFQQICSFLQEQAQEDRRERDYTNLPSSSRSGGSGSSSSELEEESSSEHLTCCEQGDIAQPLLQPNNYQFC

In the case of `O=c1c2c(NCCCN3CCOCC3)ccc3ncn(c4ccc5[nH]ncc5c14)c32` [(X)], the EC50 was 11 nM on FLT3 D835Y and 280 nM at CSF-1R. Besides, the half-maximal inhibitory concentration (IC50) was determined as 2.7 nM in test [1], 2 nM in test [2] (setting [4]) and 2 nM in test [2] (setting [5]). For the same compound, the “concentration at which cell proliferation was inhibited (BrdU)” value in the test on MdaMb231 cells was 20 µM. Further, the “BrdU (Inhibition of cell proliferation)” value in the test with MdaMb231 cells came to 20 μm.

Turning to `CN(C)CCNc1ccc2ncn3c4ccc5[nH]ncc5c4c(=O)c1c23` [(XII)], the values for the EC50 on FLT3 D835Y and on CSF-1R were 3 nM and 360 nM, respectively. Moreover, the IC50 is 7400 nM in test [3] (setting [6]); 7400 nM in test [3] (setting [7]); less than 0.1 nM in test [1]; less than 1 nM in test [2] (setting [4]); less than 1 nM in test [2] (setting [5]). Moreover, the “concentration at which cell proliferation was inhibited (BrdU)” value with MdaMb231 cells was determined as 2.5 µM. For the same compound, in the test with MdaMb231 cells, the “BrdU (Inhibition of cell proliferation)” value amounted to 2.5 μm.

Consider `CC(CCN1CCOCC1)Nc1ccc2ncn3c4ccc5[nH]ncc5c4c(=O)c1c23` (centres unmarked) [(XVI)], for which the figures for the EC50 on FLT3 D835Y and at CSF-1R were 8 nM and 245 nM, respectively. The IC50 in test [3] (setting [6]) was 5100 nM; in test [3] (setting [7]), 5100 nM; in test [1] it was 25.7 nM; in test [2] (setting [4]), 121 nM; in test [2] (setting [5]), 121 nM. The “concentration at which cell proliferation was inhibited (BrdU)” value in the test with MdaMb231 cells amounted to 20 µM. Besides, the “BrdU (Inhibition of cell proliferation)” value in the test with MdaMb231 cells is recorded as 5 μm.

Take `CN1CCN(CCCNc2ccc3ncn4c5ccc6[nH]ncc6c5c(=O)c2c34)CC1` [(XVII)]: the results for the EC50 on FLT3 D835Y and on CSF-1R were 5 nM and 950 nM, respectively. Further, the IC50 in test [3] (setting [6]) is 45300 nM; in test [3] (setting [7]), 45300 nM; in test [1] it was 2.6 nM; in test [2] (setting [8]), 82 nM; in test [2] (setting [5]) it was 82 nM. Moreover, the “BrdU (Inhibition of cell proliferation)” value with MdaMb231 cells is more than 20 μm.

Take `CN(C)CCCNc1ccc2ncn3c4ccc5[nH]ncc5c4c(=O)c1c23` [Compound (IV)]: the EC50 was 12 nM on FLT3 D835Y and 200 nM on CSF-1R. Also, the IC50 is 5400 nM in test [3] (setting [6]); 5400 nM in test [3] (setting [7]); less than 0.1 nM in test [1]; less than 1 nM in test [2] (setting [4]); less than 1 nM in test [2] (setting [5]). Further, in the test with MdaMb231 cells, the “concentration at which cell proliferation was inhibited (BrdU)” value turned out to be 2.5 µM. The “BrdU (Inhibition of cell proliferation)” value in the test with MdaMb231 cells is 2.5 μm.

As to `CCN(CC)CCCNc1ccc2ncn3c4ccc5[nH]ncc5c4c(=O)c1c23` [Compound (XV)], the EC50 was 4 nM at FLT3 D835Y and 490 nM at CSF-1R. For the same compound, the IC50 in test [3] (setting [6]) is 4000 nM; in test [3] (setting [7]), 4000 nM; in test [1] it was less than 0.1 nM; in test [2] (setting [8]), less than 1 nM; in test [2] (setting [5]) it was less than 1 nM. In addition, the “concentration at which cell proliferation was inhibited (BrdU)” value with MdaMb231 cells amounted to 20 µM.

With `CCN(CC)CCNc1ccc2ncn3c4ccc(O)cc4c(=O)c1c23` [Symadex, 5-(2-(diethylamino)ethylamino)-8-hydroxy-6H-imidazo[4,5,1-de]acridin-6-one, reference compound], the EC50 is 24 nM on FLT3 D835Y and 430 nM on CSF-1R. The IC50 in test [3] (setting [7]) stood at 6800 nM; in test [2] (setting [8]), 28 nM; in test [2] (setting [4]), 12 nM; in test [2] (setting [5]) it was 12 nM.

The values above are taken from patent US20100292231A1, “Indazole Compounds for Treating Inflammatory Disorders, Demyelinating Disorders and Cancers” (priority 2007, published 2010).
